In one assay the test system is pigs. Nature of the assay: growth assay, starter pig performance 0-21 days post-weaning. In kind it is in vivo. The conditions noted are these: for Daily gain: fed ad libitum. From the text: (§1) A trial of 180 (21±2 days of age) pigs was used in a growth assay to compare the effects of supplementing the pigs' diet with L-lysine^. HCl, 98% (78.5% lysine), and the dipeptide L-lysyl-glycine^. HCl (approximately 50% lysine) on starter pig performance and nitrogen utilization. Pigs were blocked (n=5) by initial weight (6.3 kg) and assigned to treatments according to ancestry and sex. Feed and water were available ad libitum for 21 days post-weaning (11.7 kg final weight). The control diets were formulated to include 0.9% and 1.1% lysine respectively, using a corn-soybean meal mixture containing 15% edible grade dried whey. Synthetic lysine^. HCl and the dipeptide lysyl-glycine were added to the control diets to form test diets containing 1.0% and 1.1% lysine and lysyl-glycine respectively. The following table sets forth each of the six diets used in this study.
(§2) Serum samples were obtained on days 7, 14, and 21 for analysis of urea nitrogen. Data were analyzed as a randomized complete block design and means were separated using Bonferroni pared t-tests. Single df contrasts were used to evaluate differences between the two lysine sources and levels. No differences in daily gain or daily feed intake were observed between treatments. In general, pigs consuming the 1.1% lysine corn-soybean meal control diet had higher urea nitrogen than the pigs consuming the reduced protein diets and those consuming the 1.1% lysine, lysyl-glycine supplemented diet had the lowest urea nitrogen. Pigs consuming the diets containing lysyl-glycine had lower urea nitrogen levels than pigs fed the lysine^. HCl diets on day 21. […] HCl as evidenced by the lower serum urea nitrogen levels on day 21.

Assay [1] in a line: serum urea nitrogen (nitrogen utilization) in starter pigs. In kind it is in vivo. The settings on record: for d 7 urea N: day 7; for d 14 urea N: day 14.
From the text: as §1, §2

Where [2] appears, read: serum, day 21, diet 1.0% lysine.
Where [3] appears, read: serum, day 21, diet 1.1% lysine.

SMILES strings stand for the structures. Structures can show the parent of a compound that is named as a salt. Peptide text beside a SMILES is read from it.

In the assay with pigs (diet 1.0% lysine), `NCCCC[C@H](N)C(=O)O` [Lysine HCl, L-lysine^. HCl, reference compound] displayed a Daily feed of 460 g, a Gain/feed of 600 and a Daily gain of 276 g. In the assay with pigs (diet 1.1% lysine), this compound showed a Daily feed of 413 g, a Gain/feed of 613 and a Daily gain of 253 g. For the same compound, in assay [1] (serum, diet 1.0% lysine), the “d 7 urea N” value is 9.5 mg/dL and the “d 14 urea N” value is 9.6 mg/dL. In addition, in assay [1] (serum, diet 1.1% lysine), the “d 7 urea N” value was 9.2 mg/dL and the “d 14 urea N” value amounted to 8.4 mg/dL. The “d 21 urea N” value in assay [1] (setting [2]) stood at 10.7 mg/dL. The “d 21 urea N” value in assay [1] (setting [3]) was 8.5 mg/dL.
In the assay with pigs (diet 1.0% lysine), `NCCCC[C@H](N)C(=O)NCC(=O)O` [Lysyl-glycine, L-lysyl-glycine^. HCl] (H-Lys-Gly-OH) had a Daily feed of 395 g, a Gain/feed of 547 and a Daily gain of 218 g. In the assay on pigs (diet 1.1% lysine), this compound registered a Daily feed of 432 g, a Gain/feed of 643 and a Daily gain of 280 g. In addition, the “amino acid utilization compared with lysine HCl” value in assay [1] (as evidenced by lower serum urea nitrogen on day 21) is given as “more efficiently utilized”. Also, in assay [1] (serum, diet 1.0% lysine), the “d 7 urea N” value came to 9.7 mg/dL and the “d 14 urea N” value amounted to 8.9 mg/dL. Also, in assay [1] (serum, diet 1.1% lysine), the “d 7 urea N” value was found to be 8.5 mg/dL and the “d 14 urea N” value worked out at 8.6 mg/dL. Moreover, the “urea nitrogen levels compared with pigs fed the lysine HCl diets” value in assay [1] (serum, day 21, P = 0.05) is recorded as “lower”. Also, the “d 21 urea N” value in assay [1] (setting [2]) was found to be 9.1 mg/dL. In assay [1] (setting [3]), the “d 21 urea N” value was 7.9 mg/dL. The “urea nitrogen compared with the other diets” value in assay [1] (serum, 1.1% lysine, lysyl-glycine supplemented diet, in general) is given as “lowest”.

For the origin of these results see US5525350A, “Supplementation of protein diets with di- and tripeptides” (Kansas State University Research Foundation, priority 1994, dated 1996).
